These results are taken from the NIST ThermoML archive (doi:10.1016/j.tca.2008.10.009).

The conditions of the data set: Crystal, Rate of evaporation.

With `CC(C)C[C@H](N)C(=O)O` [L-leucine], the “vapor or sublimation pressure” value is recorded as 0.0009 kPa (420.7 K); 0.0029 kPa (440.3 K); 0.0425 kPa (469.9 K); 0.5263 kPa (499.2 K); 2.162 kPa (517.5 K).
